Source: PubChem BioAssay (NCI)
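Growth conditions: 96-well plates. Treatment: test compound, 48 hours, 5 concentrations. Analysis: linear interpolation between bracketing concentrations; unreached endpoints set to highest concentration. GI50 marks 50% less growth. At the TGI there is no net growth.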

How the values were obtained:
Assay in all cases: DTP human tumour cell line panel, 48 h
786-0 renal = tested on: 786-0 renal
A498 renal = tested on: A498 renal
A549 NSCLC = tested on: A549 NSCLC
ACHN renal = tested on: ACHN renal
BT-549 breast = tested on: BT-549 breast
CAKI-1 renal = tested on: CAKI-1 renal
CCRF-CEM leukemia = tested on: CCRF-CEM leukemia
COLO 205 colon = tested on: COLO 205 colon
DU-145 prostate = tested on: DU-145 prostate
EKVX NSCLC = tested on: EKVX NSCLC
HCC-2998 colon = tested on: HCC-2998 colon
HCT-116 colon = tested on: HCT-116 colon
HCT-15 colon = tested on: HCT-15 colon
HL-60(TB) leukemia = tested on: HL-60(TB) leukemia
HOP-62 NSCLC = tested on: HOP-62 NSCLC
HOP-92 NSCLC = tested on: HOP-92 NSCLC
HS 578T breast = tested on: HS 578T breast
HT29 colon = tested on: HT29 colon
IGROV1 ovarian = tested on: IGROV1 ovarian
K-562 leukemia = tested on: K-562 leukemia
KM12 colon = tested on: KM12 colon
LOX IMVI melanoma = tested on: LOX IMVI melanoma
M14 melanoma = tested on: M14 melanoma
MALME-3M melanoma = tested on: MALME-3M melanoma
MCF7 breast = tested on: MCF7 breast
MDA-MB-231 breast = tested on: MDA-MB-231 breast
MDA-MB-435 = tested on: MDA-MB-435
MOLT-4 leukemia = tested on: MOLT-4 leukemia
NCI-H226 lung = tested on: NCI-H226 lung
NCI-H23 lung = tested on: NCI-H23 lung
NCI-H460 lung = tested on: NCI-H460 lung
NCI-H522 lung = tested on: NCI-H522 lung
NCI/ADR-RES ovarian = tested on: NCI/ADR-RES ovarian
OVCAR-3 ovarian = tested on: OVCAR-3 ovarian
OVCAR-4 ovarian = tested on: OVCAR-4 ovarian
OVCAR-5 ovarian = tested on: OVCAR-5 ovarian
OVCAR-8 ovarian = tested on: OVCAR-8 ovarian
PC-3 prostate = tested on: PC-3 prostate
RPMI-8226 leukemia = tested on: RPMI-8226 leukemia
RXF 393 renal = tested on: RXF 393 renal
SF-268 CNS = tested on: SF-268 CNS
SF-295 CNS = tested on: SF-295 CNS
SF-539 CNS = tested on: SF-539 CNS
SK-MEL-2 melanoma = tested on: SK-MEL-2 melanoma
SK-MEL-28 melanoma = tested on: SK-MEL-28 melanoma
SK-MEL-5 melanoma = tested on: SK-MEL-5 melanoma
SK-OV-3 ovarian = tested on: SK-OV-3 ovarian
SN12C renal = tested on: SN12C renal
SNB-19 CNS = tested on: SNB-19 CNS
SNB-75 CNS = tested on: SNB-75 CNS
SR leukemia = tested on: SR leukemia
SW-620 colon = tested on: SW-620 colon
T-47D breast = tested on: T-47D breast
TK-10 renal = tested on: TK-10 renal
U251 CNS = tested on: U251 CNS
UACC-257 melanoma = tested on: UACC-257 melanoma
UACC-62 melanoma = tested on: UACC-62 melanoma
UO-31 renal = tested on: UO-31 renal

Compound: CN(C)CCN1C(=O)c2ccccc2N(C)c2ccccc21
- GI50 (786-0 renal): > 100 µM
- TGI (786-0 renal): > 100 µM
- GI50 (A498 renal): > 100 µM
- TGI (A498 renal): > 100 µM
- GI50 (A549 NSCLC): > 100 µM
- TGI (A549 NSCLC): > 100 µM
- GI50 (ACHN renal): > 100 µM
- TGI (ACHN renal): > 100 µM
- GI50 (BT-549 breast): > 100 µM
- TGI (BT-549 breast): > 100 µM
- GI50 (CAKI-1 renal): > 100 µM
- TGI (CAKI-1 renal): > 100 µM
- GI50 (CCRF-CEM leukemia): > 100 µM
- TGI (CCRF-CEM leukemia): > 100 µM
- GI50 (COLO 205 colon): > 100 µM
- TGI (COLO 205 colon): > 100 µM
- GI50 (DU-145 prostate): > 100 µM
- TGI (DU-145 prostate): > 100 µM
- GI50 (EKVX NSCLC): > 100 µM
- TGI (EKVX NSCLC): > 100 µM
- GI50 (HCC-2998 colon): > 100 µM
- TGI (HCC-2998 colon): > 100 µM
- GI50 (HCT-116 colon): > 100 µM
- TGI (HCT-116 colon): > 100 µM
- GI50 (HCT-15 colon): > 100 µM
- TGI (HCT-15 colon): > 100 µM
- GI50 (HL-60(TB) leukemia): > 100 µM
- TGI (HL-60(TB) leukemia): > 100 µM
- GI50 (HOP-62 NSCLC): > 100 µM
- TGI (HOP-62 NSCLC): > 100 µM
- GI50 (HOP-92 NSCLC): > 100 µM
- TGI (HOP-92 NSCLC): > 100 µM
- GI50 (HS 578T breast): > 100 µM
- TGI (HS 578T breast): > 100 µM
- GI50 (HT29 colon): > 100 µM
- TGI (HT29 colon): > 100 µM
- GI50 (IGROV1 ovarian): > 100 µM
- TGI (IGROV1 ovarian): > 100 µM
- GI50 (K-562 leukemia): > 100 µM
- TGI (K-562 leukemia): > 100 µM
- GI50 (KM12 colon): > 100 µM
- TGI (KM12 colon): > 100 µM
- GI50 (LOX IMVI melanoma): > 100 µM
- TGI (LOX IMVI melanoma): > 100 µM
- GI50 (M14 melanoma): > 100 µM
- TGI (M14 melanoma): > 100 µM
- GI50 (MALME-3M melanoma): > 100 µM
- TGI (MALME-3M melanoma): > 100 µM
- GI50 (MCF7 breast): > 100 µM
- TGI (MCF7 breast): > 100 µM
- GI50 (MDA-MB-231 breast): > 100 µM
- TGI (MDA-MB-231 breast): > 100 µM
- GI50 (MDA-MB-435): > 100 µM
- TGI (MDA-MB-435): > 100 µM
- GI50 (MOLT-4 leukemia): > 100 µM
- TGI (MOLT-4 leukemia): > 100 µM
- GI50 (NCI-H226 lung): > 100 µM
- TGI (NCI-H226 lung): > 100 µM
- GI50 (NCI-H23 lung): > 100 µM
- TGI (NCI-H23 lung): > 100 µM
- GI50 (NCI-H460 lung): > 100 µM
- TGI (NCI-H460 lung): > 100 µM
- GI50 (NCI-H522 lung): > 100 µM
- TGI (NCI-H522 lung): > 100 µM
- GI50 (NCI/ADR-RES ovarian): > 100 µM
- TGI (NCI/ADR-RES ovarian): > 100 µM
- GI50 (OVCAR-3 ovarian): > 100 µM
- TGI (OVCAR-3 ovarian): > 100 µM
- GI50 (OVCAR-4 ovarian): > 100 µM
- TGI (OVCAR-4 ovarian): > 100 µM
- GI50 (OVCAR-5 ovarian): > 100 µM
- TGI (OVCAR-5 ovarian): > 100 µM
- GI50 (OVCAR-8 ovarian): > 100 µM
- TGI (OVCAR-8 ovarian): > 100 µM
- GI50 (PC-3 prostate): > 100 µM
- TGI (PC-3 prostate): > 100 µM
- GI50 (RPMI-8226 leukemia): > 100 µM
- TGI (RPMI-8226 leukemia): > 100 µM
- GI50 (RXF 393 renal): > 100 µM
- TGI (RXF 393 renal): > 100 µM
- GI50 (SF-268 CNS): > 100 µM
- TGI (SF-268 CNS): > 100 µM
- GI50 (SF-295 CNS): > 100 µM
- TGI (SF-295 CNS): > 100 µM
- GI50 (SF-539 CNS): > 100 µM
- TGI (SF-539 CNS): > 100 µM
- GI50 (SK-MEL-2 melanoma): > 100 µM
- TGI (SK-MEL-2 melanoma): > 100 µM
- GI50 (SK-MEL-28 melanoma): > 100 µM
- TGI (SK-MEL-28 melanoma): > 100 µM
- GI50 (SK-MEL-5 melanoma): > 100 µM
- TGI (SK-MEL-5 melanoma): > 100 µM
- GI50 (SK-OV-3 ovarian): > 100 µM
- TGI (SK-OV-3 ovarian): > 100 µM
- GI50 (SN12C renal): > 100 µM
- TGI (SN12C renal): > 100 µM
- GI50 (SNB-19 CNS): > 100 µM
- TGI (SNB-19 CNS): > 100 µM
- GI50 (SNB-75 CNS): > 100 µM
- TGI (SNB-75 CNS): > 100 µM
- GI50 (SR leukemia): > 100 µM
- TGI (SR leukemia): > 100 µM
- GI50 (SW-620 colon): > 100 µM
- TGI (SW-620 colon): > 100 µM
- GI50 (T-47D breast): > 100 µM
- TGI (T-47D breast): > 100 µM
- GI50 (TK-10 renal): > 100 µM
- TGI (TK-10 renal): > 100 µM
- GI50 (U251 CNS): > 100 µM
- TGI (U251 CNS): > 100 µM
- GI50 (UACC-257 melanoma): > 100 µM
- TGI (UACC-257 melanoma): > 100 µM
- GI50 (UACC-62 melanoma): > 100 µM
- TGI (UACC-62 melanoma): > 100 µM
- GI50 (UO-31 renal): > 100 µM
- TGI (UO-31 renal): > 100 µM
